This is an account of results in US20070213283A1, “Macrolides substituted at the 4"-position” (priority 2003, published 2007).

Each structure is given as a SMILES string. Structures can show the parent of a compound that is named as a salt. Some results are limits rather than exact numbers.

Common to all, as to assay: MIC, standard broth dilution method in microtitre
Common to all, as to format: cell-based
(In general: Dilution methods test growth across graded concentrations, often in twofold steps.)

One assay deals with E. faecalis ATCC 29212. The note with it: Enterococcus faecalis, ATCC29212. As to the method:
(§1) Using a standard broth dilution method in microtitre, compounds were tested for antibacterial activity. The compounds in the above examples gave minimum inhibitory concentrations (MICs) less than 1 microgram per millilitre against erythromycin-sensitive and erythromycin-resistant strains of Streptococcus pneumoniae and Streptococcus pyogenes.
(§2) In addition, the MIC (μg/mL) of test compounds against various organisms was determined including:
(§3) S. aureus Smith ATCC 13709, S. pneumoniae SP030, S. pyogenes 3565, E. faecalis ATCC 29212, H. influenzae ATCC 49247, M. catarrhalis ATCC 23246.

A further assay has as its system H. influenzae ATCC 49247. As to conditions: Haemophilus influenzae, ATCC49247; H. influenzae ATCC 49247; broth dilution in microtitre; read-out: MIC. As to the method: as §1, §2, §3
Assay [1] has as its system M. catarrhalis ATCC 23246. As to conditions: Moraxella catarrhalis, ATCC23246. As to the method:
as §1, §2, §3

Assay [2] deals with S. aureus Smith ATCC 13709. As to conditions: Staphylococcus aureus, ATCC13709. As to the method: as §1, §2, §3
Another assay has as its system S. pneumoniae SP030. As to conditions: Streptococcus pneumoniae. As to the method: as §1, §2, §3
The test system of another assay is S. pyogenes 3565. As to conditions: Streptococcus pyogenes. As to the method:
as §1, §2, §3

On to `CC[C@H]1OC(=O)[C@H](C)[C@@H](O[C@H]2C[C@@](C)(OC)[C@@H](OC(=O)CCNCCSc3ccc4c(=O)c(C(=O)O)cn(CC)c4c3)[C@H](C)O2)[C@@H](C)[C@@H](O[C@@H]2O[C@H](C)C[C@H](N(C)C)[C@H]2O)[C@](C)(O)C[C@@H](C)CN(C)[C@H](C)[C@@H](O)[C@]1(C)O` [Example 1, 4″-O-{3-[2-(3-Carboxy-1-ethyl-4-oxo-1,4-dihydro-7-quinolinylsulfanyl)ethylamino]propionyl}-azithromycin], for which the MIC in the assay on E. faecalis ATCC 29212 is no more than 1 µg/mL; with H. influenzae ATCC 49247, no more than 2 µg/mL; in assay [1], no more than 2 µg/mL; in assay [2], no more than 1 µg/mL; against S. pneumoniae SP030, no more than 1 µg/mL; in the assay on S. pyogenes 3565, no more than 1 µg/mL.
With `CC[C@@H]1OC(=O)[C@H](C)[C@@H](O[C@H]2C[C@@](C)(OC)[C@@H](OC(=O)CCNCCSc3ccc4c(=O)c(C(=O)O)cn(CC)c4c3)[C@@H](C)O2)[C@@H](C)[C@H](O[C@H]2O[C@@H](C)C[C@@H](N(C)C)[C@H]2O)[C@](C)(O)C[C@H](C)CN(C)[C@H](C)[C@H]2OC(=O)O[C@]12C` [Example 2, 4″-O-{3-[2-(3-Carboxy-1-ethyl-4-oxo-1,4-dihydro-7-quinolinylsulfanyl)ethylamino]propionyl}-azithromycin-11,12-carbonate], the MIC against E. faecalis ATCC 29212 is no more than 1 µg/mL; in the assay with H. influenzae ATCC 49247, no more than 2 µg/mL; in assay [1] it was no more than 2 µg/mL; in assay [2], no more than 1 µg/mL; in the assay on S. pneumoniae SP030, no more than 1 µg/mL; in the assay on S. pyogenes 3565, no more than 1 µg/mL.
Regarding `CC[C@@H]1OC(=O)[C@H](C)[C@H](O[C@H]2C[C@@](C)(OC)[C@@H](OC(=O)CCNCCSc3ccc4c(=O)c(C(=O)O)cn(CC)c4c3)[C@@H](C)O2)[C@@H](C)[C@H](OC2O[C@@H](C)C[C@@H](N(C)C)[C@H]2O)[C@@](C)(OC)C[C@H](C)C(=O)[C@H](C)[C@@H](O)[C@]1(C)O` (some centres unmarked) [Example 3, 4″-O-{3-[2-(3-Carboxy-1-ethyl-4-oxo-1,4-dihydro-7-quinolinylsulfanyl)ethylamino]propionyl}-6-O-methyl-erythromycin A], the MIC (with H. influenzae ATCC 49247; in assay [1]) was no more than 2 µg/mL each time.
Turning to `CC[C@@H]1OC(=O)[C@H](C)[C@H](O[C@H]2C[C@](C)(OC)[C@@H](OC(=O)CCNCCSc3cnc4c(c3)c(=O)c(C(=O)O)cn4CC)[C@@H](C)O2)[C@@H](C)[C@H](O[C@H]2O[C@@H](C)C[C@@H](N(C)C)[C@H]2O)[C@@](C)(O)C[C@H](C)CN(C)[C@H](C)[C@@H](O)[C@@]1(C)O` [Example 4, 4″-O-{3-[2-(3-Carboxy-1-ethyl-4-oxo-1,4-dihydro-[1,8]naphthyridin-6-ylsulfanyl)ethylamino]propionyl}-azithromycin tris trifluoroacetate salt], the MIC in the assay on E. faecalis ATCC 29212 is no more than 1 µg/mL; in the assay with H. influenzae ATCC 49247, no more than 2 µg/mL; in assay [1], no more than 2 µg/mL; in assay [2], no more than 1 µg/mL; in the assay on S. pneumoniae SP030 it was no more than 1 µg/mL; in the assay with S. pyogenes 3565 it was no more than 1 µg/mL.
In the case of `CC[C@@H]1OC(=O)[C@H](C)[C@H](O[C@@H]2C[C@](C)(OC)[C@H](OC(=O)CCNCCSc3ccc4c(c3)c(=O)c(C(=O)O)cn4CC)[C@H](C)O2)[C@@H](C)[C@H](O[C@@H]2O[C@H](C)C[C@H](N(C)C)[C@@H]2O)[C@](C)(O)C[C@H](C)CN(C)[C@H](C)[C@@H](O)[C@]1(C)O` [Example 10, 4″-O-{3-[2-(3-Carboxy-1-ethyl-4-oxo-1,4-dihydro-6-quinolinysulfanyl)ethylamino]propionyl}-azithromycin], the MIC (against E. faecalis ATCC 29212; in assay [2]; against S. pneumoniae SP030; against S. pyogenes 3565) was no more than 1 µg/mL each time.
`CC[C@@H]1OC(=O)[C@H](C)[C@H](O[C@@H]2C[C@](C)(OC)[C@H](OC(=O)CCNCCOc3cc4c5c(c3)c(=O)c(C(=O)O)cn5CCC4)[C@H](C)O2)[C@@H](C)[C@H](O[C@@H]2O[C@H](C)C[C@H](N(C)C)[C@@H]2O)[C@](C)(O)C[C@H](C)CN(C)[C@H](C)[C@@H](O)[C@]1(C)O` [Example 12, 4″-O-{3-[2-(6-Carboxy-7-oxo-2,3-dihydro-1H,7H-pyrido[3,2,1-ij]quinolin-9-yloxy)ethylamino]propionyl}-azithromycin tris trifluoroacetate salt]: the MIC (against E. faecalis ATCC 29212; in assay [2]; in the assay on S. pneumoniae SP030; in the assay on S. pyogenes 3565) was no more than 1 µg/mL each time.
In the case of `CC[C@@H]1OC(=O)[C@H](C)[C@H](O[C@@H]2C[C@](C)(OC)[C@H](OC(=O)CCNCCOc3ccc4c(c3)c(=O)c(C(=O)O)cn4CC)[C@H](C)O2)[C@@H](C)[C@H](O[C@@H]2O[C@H](C)C[C@H](N(C)C)[C@@H]2O)[C@](C)(O)C[C@H](C)CN(C)[C@H](C)[C@@H](O)[C@]1(C)O` [Example 14, 4″-O-{3-[2-(3-Carboxy-1-ethyl-4-oxo-1,4-dihydro-6-quinolinyloxy)ethylamino]propionyl}-azithromycin tris trifluoroacetate salt], the MIC (with E. faecalis ATCC 29212; in assay [2]; against S. pneumoniae SP030; against S. pyogenes 3565) was no more than 1 µg/mL each time.
On to `CC[C@H]1OC(=O)[C@H](C)[C@@H](O[C@H]2C[C@@](C)(OC)[C@@H](OC(=O)CCOCCOc3cc4c(=O)c(C(=O)O)cn(C5CC5)c4cc3Cl)[C@H](C)O2)[C@H](C)[C@@H](O[C@@H]2O[C@H](C)C[C@H](N(C)C)[C@H]2O)[C@](C)(O)C[C@@H](C)CN(C)[C@H](C)[C@H]2OC(=O)O[C@@]21C` [Example 25, 4″-O-{3-[2-(3-Carboxy-7-chloro-1-cyclopropyl-4-oxo-1,4-dihydro-quinolin-6-yloxy)-ethoxy]-propionyl}-azithromycin11,12-carbonate], for which the MIC (with E. faecalis ATCC 29212; in assay [2]; against S. pneumoniae SP030; against S. pyogenes 3565) was no more than 1 µg/mL each time.
Take `CC[C@H]1OC(=O)[C@H](C)[C@@H](O[C@H]2C[C@@](C)(OC)[C@@H](OC(=O)CCOCCOc3ccc4c(c3)c(=O)c(C(=O)O)cn4C3CC3)[C@H](C)O2)[C@H](C)[C@@H](O[C@@H]2O[C@H](C)C[C@H](N(C)C)[C@H]2O)[C@](C)(O)C[C@@H](C)CN(C)[C@H](C)[C@H]2OC(=O)O[C@@]21C` [Example 26, 4″-O-{3-[2-(3-Carboxy-1-cyclopropyl-4-oxo-1,4-dihydro-quinolin-6-yloxy)-ethoxy]-propionyl}-azithromycin11,12-carbonate]: the MIC against E. faecalis ATCC 29212 was no more than 1 µg/mL; in the assay on H. influenzae ATCC 49247 it was no more than 2 µg/mL; in assay [1], no more than 2 µg/mL; in assay [2], no more than 1 µg/mL; with S. pneumoniae SP030, no more than 1 µg/mL; against S. pyogenes 3565 it was no more than 1 µg/mL.
For the compound `CC[C@H]1OC(=O)[C@H](C)[C@@H](OC2C[C@@](C)(OC)[C@@H](OC(=O)CCOCCOc3cc4c(=O)c(C(=O)O)cn(C5CC5)c4cc3Cl)[C@H](C)O2)[C@H](C)[C@@H](O[C@@H]2O[C@H](C)C[C@H](N(C)C)[C@H]2O)[C@](C)(O)C[C@@H](C)CN(C)[C@H](C)[C@@H](OC)[C@]1(C)O` (some centres unmarked) [Example 34, 4″-O-{3-[2-(3-Carboxy-7-chloro-1-cyclopropyl-4-oxo-1,4-dihydro-quinolin-6-yloxy)-ethoxy]-propionyl}-11-O-methyl-azithromycin], the MIC in the assay on E. faecalis ATCC 29212 is no more than 1 µg/mL; with H. influenzae ATCC 49247, no more than 2 µg/mL; in assay [1], no more than 2 µg/mL; in assay [2] it was no more than 1 µg/mL; in the assay with S. pneumoniae SP030, no more than 1 µg/mL; in the assay with S. pyogenes 3565 it was no more than 1 µg/mL.
As for `CC[C@H]1OC(=O)[C@H](C)[C@@H](OC2C[C@@](C)(OC)[C@@H](OC(=O)CCOCCOc3ccc4c(c3)c(=O)c(C(=O)O)cn4C3CC3)[C@H](C)O2)[C@H](C)[C@@H](OC2O[C@H](C)C[C@H](N(C)C)[C@H]2O)[C@](C)(O)C[C@@H](C)CN(C)[C@H](C)[C@@H](OC)[C@]1(C)O` (some centres unmarked) [Example 35, 4″-O-{3-[2-(3-Carboxy-1-cyclopropyl-4-oxo-1,4-dihydro-quinolin-6-yloxy)-ethoxy]-propionyl}-11-O-methyl-azithromycin], the MIC is no more than 1 µg/mL in the assay with E. faecalis ATCC 29212; no more than 2 µg/mL with H. influenzae ATCC 49247; no more than 2 µg/mL in assay [1]; no more than 1 µg/mL in assay [2]; no more than 1 µg/mL against S. pneumoniae SP030; no more than 1 µg/mL in the assay on S. pyogenes 3565.
For the compound `CC[C@H]1OC(=O)[C@H](C)[C@@H](O[C@H]2C[C@@](C)(OC)[C@@H](OC(=O)CCOCCNc3cc4c(=O)c(C(=O)O)cn(C5CC5)c4cc3Cl)[C@H](C)O2)[C@H](C)[C@@H](O[C@@H]2O[C@H](C)C[C@H](N(C)C)[C@H]2O)[C@](C)(OC)C[C@@H](C)C(=O)[C@H](C)[C@@H](O)[C@]1(C)O` [Example 36, 4″-O-{3-[2-(3-Carboxy-7-chloro-1-cyclopropyl-4-oxo-1,4-dihydro-quinolin-6-ylamino)ethoxy]propionyl}-6-O-methyl-erythromycin A], the MIC (in the assay with E. faecalis ATCC 29212; in assay [2]; against S. pneumoniae SP030; against S. pyogenes 3565) was no more than 1 µg/mL each time.
With `CC[C@@H]1OC(=O)[C@H](C)[C@H](O[C@@H]2C[C@@](C)(OC)[C@H](OC(=O)CCOCCOc3cc4c(=O)c(C(=O)O)cn(C5CC5)c4cc3Cl)[C@H](C)O2)[C@@H](C)[C@H](O[C@@H]2O[C@H](C)C[C@H](N(C)C)[C@@H]2O)[C@@](C)(OC)C[C@H](C)C(=O)[C@H](C)[C@@H](O)[C@]1(C)O` [Example 37, 4″-O-{3-[2-(3-Carboxy-7-chloro-1 cyclopropyl-4-oxo-1,4-dihydro-quinolin-6-yloxy)ethoxy]propionyl}-6-O-methyl-erythromycin A], the MIC (in the assay with E. faecalis ATCC 29212; in assay [2]; with S. pneumoniae SP030; against S. pyogenes 3565) was no more than 1 µg/mL each time.
